Our source for the IC50 values is patent US11767323B2, “Tricyclic pyridone compounds as JAK2 V617F inhibitors” (Incyte Corporation, priority 2020, dated 2023).

For test [1], the target named is pseudo-kinase domain (JH2, amino-acids 536-812) of human Wild Type JAK2 (Homo sapiens (Human), UniProt O60674, F794H/W659A/W777A). Put plainly: JAK2 LanthaScreen JH2-WT Binding Assay. The settings on record: JAK2 JH2-WT 0.145 nM, 50 nM tracer, 1 hour at 25° C.; read-out: JH2 BIND WT IC50. The protocol: Example B. JAK2 LanthaScreen JH2-WT Binding Assay
pseudo-kinase domain (JH2, amino-acids 536-812) of human Wild Type JAK2, sequence (O60674 536-812 W659A/W777A/F794H): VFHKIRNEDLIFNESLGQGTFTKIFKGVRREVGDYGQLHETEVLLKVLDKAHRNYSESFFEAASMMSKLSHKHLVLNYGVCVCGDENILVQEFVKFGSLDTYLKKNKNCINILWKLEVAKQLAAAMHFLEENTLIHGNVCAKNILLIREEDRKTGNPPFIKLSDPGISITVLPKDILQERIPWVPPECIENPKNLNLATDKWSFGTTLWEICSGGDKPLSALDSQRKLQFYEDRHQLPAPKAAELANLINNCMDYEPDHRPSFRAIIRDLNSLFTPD
(§1) JAK2 JH2-WT binding assay utilizes pseudo-kinase domain (JH2, amino-acids 536-812 with 3 surface mutations W659A, W777A, F794H) of human Wild Type JAK2 expressed as C-terminal His-Avi-tagged, biotinylated protein in a baculovirus expression system (BPS Bioscience, Catalog #79463). The assay was conducted in black 384-well polystyrene plates in a final reaction volume of 20 μL. JAK2 JH2-WT (0.145 nM) was incubated with compounds (100 nL serially diluted in DMSO) in the presence of 50 nM Fluorescent JAK2-JH2 Tracer (MedChem Express Catalog #HY-102055) and 0.25 nM Streptavidin-Tb cryptate (Cisbio Part #610SATLB) in assay buffer (50 mM Tris, pH=7.5, 10 mM MgCl2, 0.01% Brij-35, 0.1% BSA, 1 mM EGTA, 5% Glycerol and 5 mM DTT). Non-specific binding was accessed in the presence of 2 mM ATP. After incubation for 1 hour at 25° C., LanthaScreen signals were read on a PHERAstar FS plate reader (BMG LAB TECH). Data was analyzed with IDBS XLfit and GraphPad Prism 5.0 software using a four parameter dose response curve to determine IC50 for each compound.
A general note: In TR-FRET formats the signal depends on donor and acceptor labels being close together.

Test [2] addresses catalytic domain (JH1, amino acids 826-1132) of human JAK2 (Homo sapiens (Human), UniProt O60674). Put plainly: JAK2 LanthaScreen JH1 Binding Assay. The settings on record: JAK2 JH1 1.5 nM, 50 nM tracer, 2 hours at 25° C.; read-out: JH1 BIND IC50. As to the method:
Example A. JAK2 LanthaScreen JH1 Binding Assay
JAK2 JH1 binding assay utilizes catalytic domain (JH1, amino acids 826-1132) of human JAK2 expressed as N-terminal FLAG-tagged, biotinylated protein in a baculovirus expression system (Carna Biosciences, Product #08-445-20N). The assay was conducted in black 384-well polystyrene plates in a final reaction volume of 20 μL. JAK2 JH1 (1.5 nM) was incubated with compounds (100 nL serially diluted in DMSO) in the presence of 50 nM Fluorescent JAK2-JH1 Tracer and 0.5 nM Streptavidin-Tb cryptate (Cisbio Part #610SATLB) in assay buffer (50 mM Tris, pH=7.5, 10 mM MgCl2, 0.01% Brij-35, 0.1% BSA, 1 mM EGTA, 5% Glycerol and 5 mM DTT). Non-specific binding was accessed in the presence of 2 mM ATP. After incubation for 2 hours at 25° C., LanthaScreen signals were read on a PHERAstar FS plate reader (BMG LABTECH). Data was analyzed with IDBS XLfit and GraphPad Prism 5.0 software using a four parameter dose response curve to determine IC50 for each compound.

Test [3] addresses catalytic domain (JH1, amino acids 808-1132) of human JAK2 (Homo sapiens (Human), UniProt O60674). Put plainly: JAK2 HTRF Enzyme Activity Assay. Type of test: biochemical. Particulars: JAK2 0.015 nM, ATP (30 μM or 1 mM), 60 minutes at 25° C. As to the method: Example D. JAK2 HTRF Enzyme Activity Assay
JAK2 enzyme activity assays utilize catalytic domain (JH1, amino acids 808-1132) of human JAK2 expressed as N-terminal His-tagged protein in a baculovirus expression system (BPS Bioscience, Catalog #40450). The assays was conducted in black 384-well polystyrene plates in a final reaction volume of 20 μL. JAK2 (0.015 nM) was incubated with compounds (100 nL serially diluted in DMSO) in the presence of ATP (30 μM or 1 mM) and 500 nM Biotin-labeled EQEDEPEGDYFEWLE (SEQ ID NO.: 1) peptide (BioSource International, custom synthesis) in assay buffer (50 mM Tris, pH=7.5, 10 mM MgCl2, 0.01% Brij-35, 0.1% BSA, 1 mM EGTA, 5% Glycerol and 5 mM DTT) for 60 minutes at 25° C. The reactions were stopped by the addition of 10 μL of detection buffer (50 mM Tris, pH 7.8, 0.5 mg/mL BSA, 150 mM NaCl), supplemented with EDTA, LANCE Eu-W1024 anti-phosphotyrosine (PY20), (PerkinElmer, Catalog #AD0067) and Streptavidin SureLight APC (PerkinElmer Catalog #CR130-100), for a final concentration of 15 mM, 1.5 nM and 75 nM, respectively. HTRF signals were read after 30 minutes incubation at room temperature on a PHERAstar FS plate reader (BMG LAB TECH). Data was analyzed with IDBS XLfit and GraphPad Prism 5.0 software using a four parameter dose response curve to determine IC50 for each compound.

The target of test [4] is pseudo-kinase domain (JH2, amino-acids 536-812) of human V617F mutant JAK2 (Homo sapiens (Human), UniProt O60674, F794H/V617F/W659A/W777A). Put plainly: JAK2 LanthaScreen JH2-V617F Binding Assay. Particulars: JAK2 JH2-V617F 0.26 nM, 50 nM tracer, 1 hour at 25° C.; read-out: JH2 BIND V617F IC50. As to the method: Example C. JAK2 LanthaScreen JH2-V617F Binding Assay
pseudo-kinase domain (JH2, amino-acids 536-812) of human V617F mutant JAK2, sequence (O60674 536-812 V617F/W659A/W777A/F794H): as the sequence (O60674 536-812 W659A/W777A/F794H) above, with V82F counted along it
as §1, with “JH2-V617F” for “JH2-WT”, “V617F mutant” for “Wild Type”, “#79498).” for “#79463).”, “JH2-V617F (0.26” for “JH2-WT (0.145”, “LABTECH).” for “LAB TECH).”

catalytic domain (JH1, amino acids 808-1132) of human JAK2, sequence (O60674 808-1132): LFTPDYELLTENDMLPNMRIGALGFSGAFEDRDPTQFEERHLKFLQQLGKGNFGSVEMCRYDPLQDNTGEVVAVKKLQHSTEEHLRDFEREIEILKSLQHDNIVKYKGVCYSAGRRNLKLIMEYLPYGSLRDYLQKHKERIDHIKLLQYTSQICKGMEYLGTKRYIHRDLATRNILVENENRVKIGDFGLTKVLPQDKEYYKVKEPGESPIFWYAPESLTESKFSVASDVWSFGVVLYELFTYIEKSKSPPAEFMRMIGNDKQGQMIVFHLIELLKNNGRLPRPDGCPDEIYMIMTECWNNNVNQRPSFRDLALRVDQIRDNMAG
catalytic domain (JH1, amino acids 826-1132) of human JAK2, sequence (O60674 826-1132): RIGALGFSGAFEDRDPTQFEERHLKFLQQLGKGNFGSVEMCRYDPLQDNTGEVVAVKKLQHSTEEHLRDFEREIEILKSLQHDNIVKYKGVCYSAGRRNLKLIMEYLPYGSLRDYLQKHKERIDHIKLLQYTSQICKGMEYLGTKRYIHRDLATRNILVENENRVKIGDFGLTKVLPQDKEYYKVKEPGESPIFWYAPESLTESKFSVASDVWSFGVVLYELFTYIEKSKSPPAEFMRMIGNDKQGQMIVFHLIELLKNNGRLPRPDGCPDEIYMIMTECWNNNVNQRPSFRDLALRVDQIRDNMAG

For the compound `CN(C)C(=O)c1ccc(-c2c(-c3cnn(C)c3)[nH]c3ncc4c(cc(N5CCC(S(C)(=O)=O)CC5)c(=O)n4C)c23)cc1` [Example 39, N,N-dimethyl-4-(6-methyl-2-(1-methyl-1H-pyrazol-4-yl)-8-(4-(methylsulfonyl)piperidin-1-yl)-7-oxo-6,7-dihydro-3H-pyrrolo[3,2-f][1,7]naphthyridin-1-yl)benzamide], the IC50 (as a rule, the point on the concentration scale where inhibition reaches its midpoint) in test [1] is at most 100 nM; in test [2] it was 100 to 500 nM; in test [3] it was 100 to 500 nM; in test [4], at most 100 nM.
In the case of `Cc1c(-c2cccc(Cl)c2)c(=O)n(C)c2cnc3[nH]c(-c4ccc(CN5CCC(S(C)(=O)=O)CC5)cc4)cc3c12` [Example 11, 8-(3-Chlorophenyl)-6,9-dimethyl-2-(4-((4-(methylsulfonyl)piperidin-1-yl)methyl)phenyl)-3,6-dihydro-7H-pyrrolo[3,2-f][1,7]naphthyridin-7-one], the IC50 in test [1], in test [2], in test [3] and in test [4] was at most 100 nM each time.
On to `CS(=O)(=O)C1CCN(Cc2ccc(-c3cc4c(ncc5[nH]c(=O)c(-c6ccccc6)cc54)[nH]3)cc2)CC1` [Example 1, 2-(4-((4-(Methylsulfonyl)piperidin-1-yl)methyl)phenyl)-8-phenyl-3,6-dihydro-7H-pyrrolo[3,2-f][1,7]naphthyridin-7-one], for which the IC50 in test [1] was 1000 to 10000 nM; in test [2], 1000 to 10000 nM; in test [3], over 10000 nM; in test [4] it was 1000 to 10000 nM.
With `COc1ccc(-c2c(C)c3c4cc(-c5ccc(CN6CCC(S(C)(=O)=O)CC6)cc5)[nH]c4ncc3n(C)c2=O)cc1` [Example 12, 8-(4-Methoxyphenyl)-6,9-dimethyl-2-(4-((4-(methylsulfonyl)piperidin-1-yl)methyl)phenyl)-3,6-dihydro-7H-pyrrolo[3,2-f][1,7]naphthyridin-7-one], the half-inhibitory concentration (IC50) is at most 100 nM in test [1], 100 to 500 nM in test [2], at most 100 nM in test [3] and at most 100 nM in test [4].
With `Cc1cc(-c2c(C3CCN(S(C)(=O)=O)C3)c3c4cc(-c5cnn(C)c5)[nH]c4ncc3n(C)c2=O)on1` (centres unmarked) [Example 33, 6-Methyl-2-(1-methyl-1H-pyrazol-4-yl)-8-(3-methylisoxazol-5-yl)-9-(1-(methylsulfonyl)pyrrolidin-3-yl)-3,6-dihydro-7H-pyrrolo[3,2-f][1,7]naphthyridin-7-one], the half-inhibitory concentration (IC50) is at most 100 nM in test [1], 100 to 500 nM in test [2], 100 to 500 nM in test [3] and at most 100 nM in test [4].
Take `CN(C)C(=O)c1cc2c3c(-c4ccc(C5(C#N)CC5)cc4)c(-c4cnn(C)c4)[nH]c3ncc2n(C)c1=O` [Example 44, 1-(4-(1-cyanocyclopropyl)phenyl)-N,N,6-trimethyl-2-(1-methyl-1H-pyrazol-4-yl)-7-oxo-6,7-dihydro-3H-pyrrolo[3,2-f][1,7]naphthyridine-8-carboxamide]: the IC50 in test [1] was at most 100 nM; in test [2], 1000 to 10000 nM; in test [3] it was 1000 to 10000 nM; in test [4], at most 100 nM.
For the compound `Cc1ccncc1-c1cc2c3c(-c4ccc(C(=O)N(C)C)cc4)c(-c4cnn(C)c4)[nH]c3ncc2n(C)c1=O` [Example 36, N,N-dimethyl-4-(6-methyl-2-(1-methyl-1H-pyrazol-4-yl)-8-(4-methylpyridin-3-yl)-7-oxo-6,7-dihydro-3H-pyrrolo[3,2-f][1,7]naphthyridin-1-yl)benzamide], the half-maximal inhibitory concentration (IC50) in test [1], in test [2], in test [3] and in test [4] was at most 100 nM in each case.
With `Cn1nccc1-c1cc2c(cnc3[nH]c(-c4ccc(CN5CCC(S(C)(=O)=O)CC5)cc4)cc32)[nH]c1=O` [Example 4, 8-(1-Methyl-1H-pyrazol-5-yl)-2-(4-((4-(methylsulfonyl)piperidin-1-yl)methyl)phenyl)-3,6-dihydro-7H-pyrrolo[3,2-f][1,7]naphthyridin-7-one], the 50% inhibitory concentration (IC50) in test [1], in test [2], in test [3] and in test [4] was 1000 to 10000 nM throughout.
Consider `CN(C)C(=O)c1ccc(-c2c(-c3cnn(C)c3)[nH]c3ncc4c(cc(Nc5ccc(Cc6nnn[nH]6)cc5)c(=O)n4C)c23)cc1` [Example 35, 4-(8-((4-((1H-tetrazol-5-yl)methyl)phenyl)amino)-6-methyl-2-(1-methyl-1H-pyrazol-4-yl)-7-oxo-6,7-dihydro-3H-pyrrolo[3,2-f][1,7]naphthyridin-1-yl)-N,N-dimethylbenzamide], for which the IC50 in test [1], in test [2], in test [3] and in test [4] was at most 100 nM throughout.
Regarding `Cc1cc(-c2c(-c3ccc(-c4cnn(C)c4C)cc3)c3c4cc(-c5cnn(C)c5)[nH]c4ncc3n(C)c2=O)on1` [Example 31, 9-(4-(1,5-Dimethyl-1H-pyrazol-4-yl)phenyl)-6-methyl-2-(1-methyl-1H-pyrazol-4-yl)-8-(3-methylisoxazol-5-yl)-3,6-dihydro-7H-pyrrolo[3,2-f][1,7]naphthyridin-7-one], the half-maximal inhibitory concentration (IC50) is at most 100 nM in test [1], 500 to 1000 nM in test [2], 500 to 1000 nM in test [3] and at most 100 nM in test [4].
On to `COc1c(-c2ccccc2)c(=O)n(C)c2cnc3[nH]c(-c4ccc(CN5CCC(S(C)(=O)=O)CC5)cc4)cc3c12` [Example 20, 9-Methoxy-6-methyl-2-(4-((4-(methylsulfonyl)piperidin-1-yl)methyl)phenyl)-8-phenyl-3,6-dihydro-7H-pyrrolo[3,2-f][1,7]naphthyridin-7-one], for which the IC50 in test [1] was at most 100 nM; in test [2] it was at most 100 nM; in test [3], at most 100 nM; in test [4] it was 100 to 500 nM.
